Measurements: the SangsterLogP compilation

Assays:
[1] = method code …, from Wiggins, H.; Karcher, A.; Michael Wilson, J.; Robb, I. (2008). Determining Octanol/Water Partitioning Coefficients for Industrial Surfactants. Proc. 15th Annual International Petroleum & Biofuels …
[2] = method code SF-AS, from DOI: 10.1584/jpestics.8.69
[3] = not given; remark: listed apart in the source
[4] = not given; remark: listed apart in the source
[5] = method code SF-AS, from PMID: 7149911; conditions: pH 8.9
[6] = method code SF-AS, from DOI: 10.1016/0304-4165(87)90236-4, PMID: 2889474
[7] = method code SF-AS, from DOI: 10.1016/s0020-1693(00)85781-3
[8] = method code SF, from DOI: 10.1023/a:1016286026462, PMID: 8570535
[9] = method code SF-AS, from DOI: 10.1248/bpb1978.4.759, PMID: 7320829
[10] = method code SF-AS, from Kishida, K.; Otori, T. (1980). A quantitative study on the relationship between transcorneal permeability of drugs and their hydrophobicity. Jpn J Ophthalmol, 24(3)251-259.; conditions: pH 7.4
[11] = method code SF-HPLC, from DOI: 10.1016/0378-5173(88)90064-6; conditions: pH 7.4
[12] = method code SF-AS, from DOI: 10.1016/0041-008x(67)90079-8
[13] = method code SF-HPLC, from Peips, M.; Sikk, P.; Aaviksaar, A. (1986). Hydrophobic interaction in the active sites of serine proteases from thermoactinomycetes. Org. React., 23(3)261-271.; conditions: pH 2.2
[14] = not given; remark: listed apart in the source
[15] = not given; remark: listed apart in the source
[16] = not given; remark: listed apart in the source

`CCCCCCCCOCCOCCOCCO` showed a logP [1] of 2.84.

Work on `ClC(Cl)(Cl)C(c1ccccc1)c1ccccc1` yielded a logP [2] of 4.87.

For `CCCCCCCCCCOCCOCCOCCOCCOCCOCCOCCOCCO`, the logP [1] was 3.09.

With `Clc1cc2oc3c(Cl)cc(Cl)c(Cl)c3c2c(Cl)c1Cl` the logP was 6.82.

Work on `CCCCCCCCOCCOCCOCCOCCOCCO` yielded a logP [1] of 2.43.

`Cn1c(=O)nc(-c2ccccc2)c2cc(F)ccc21` gave a logP [3] of 1.87.

For `COc1ccc(CCN(C)CCCC2(c3ccc(OC)c(OC)c3)S(=O)(=O)CCCS2(=O)=O)cc1OC`, the logP [4] was 2.6.

`CN(N=O)C(=O)Nc1ccccc1` showed a logD [5] of 1.72.

With `CC1CC2OC(=O)C3(C)C2C(OC3(C)O)C2(C)C(=O)C=CC12` (stereo unspecified) the logP [6] was 0.3.

Work on `Brc1cc2oc3c(Br)c(Br)c(Br)cc3c2cc1Br` yielded a logP of 7.04.

With `CC(C)(C)c1ccc2c(c1)COCCOCCOCCOCCOCc1cc(C(C)(C)C)ccc1COCCOCCOCCOCCOC2` the logP [7] was 3.32.

Compound `Cn1c(=O)nc(-c2ccccc2)c2cc(C(F)(F)F)ccc21` has a logP [3] of 2.69.

With `CCCCOC(=O)c1ccccc1C(=O)OCCCC` the logP [8] was 4.39.

For `CN(N=O)C(=O)Nc1ccc(F)cc1`, the logD [5] was 1.88.

In the case of `CCC1(c2ccccc2)C(=O)NC(=O)N1S(=O)(=O)c1ccccc1` (stereo unspecified), the logP [9] is reported as 2.44.

In the case of `O=C1NC(=O)C(c2ccccc2)(c2ccccc2)N1S(=O)(=O)c1ccccc1`, the logD ([9]; pH 7.0) is reported as 1.93.

Compound `Nc1ccc(CO)cc1` has a logD [10] of -0.22.

`Clc1cc2oc3cc(Cl)c(Cl)cc3c2cc1Cl` gave a logP of 5.83.

In the case of `CCCCCCCCCCCCOCCOCCOCCOCCOCCOCCOCCO`, the logP [1] is reported as 4.59.

In the case of `COc1ccc(C(C)c2ccc(OC)cc2)cc1`, the logP [2] is reported as 4.52.

In the case of `Cc1ccccc1OCC(O)CNCCOc1ccc(C(N)=O)cc1` (stereo unspecified), the logP [4] is reported as 2.19.

For `CC(=O)c1ccc2cc(C(C)C(=O)OCC(=O)N(C)CC(N)=O)ccc2c1` (stereo unspecified), the logD [11] was 1.37.

Compound `Clc1cccnc1Cl` has a logP [12] of 2.11.

Work on `O=C1NC(=O)C(c2ccccc2)(c2ccc(O)cc2)N1` (stereo unspecified) yielded a logP [9] of 1.72.

`CCCCC(NC(C)=O)C(=O)O` (stereo unspecified) gave a logD [13] of 0.33.

`Cn1c(=O)nc(-c2ccccc2)c2cc(S(C)(=O)=O)ccc21` gave a logP [3] of 0.59.

Compound `O=C1NC(=O)C(c2ccccc2)(c2ccccc2)N1S(=O)(=O)c1ccc(Cl)cc1` has a logP [9] of 3.48.

`CCc1ccc(N)cc1` showed a logD [10] of 1.96.

Work on `Brc1cc2oc3cc(Br)c(Br)cc3c2cc1Br` yielded a logP of 5.98.

With `CC(=O)c1ccc2cc(C(C)C(=O)OCC(=O)N(CCO)CCO)ccc2c1` (stereo unspecified) the logD [11] was 1.7.

`O=C(CCCCC(CO[N+](=O)[O-])O[N+](=O)[O-])Oc1ccccc1C(=O)O` (stereo unspecified) gave a logP [14] of 2.97.

For `C=CCOc1ccccc1OCC(CNC(C)C)OC(=O)C(C)(C)C` (stereo unspecified), the logP [15] was 3.54.

For `C=CCOc1ccccc1OCC(CNC(C)C)OC(=O)C(C)C` (stereo unspecified), the logP [15] was 3.77.

`O=C(CCCC(CO[N+](=O)[O-])O[N+](=O)[O-])Oc1ccccc1C(=O)O` (stereo unspecified) showed a logP [14] of 2.62.

`CCOc1ccc(N)cc1` gave a logD [10] of 1.24.

Compound `c1ccc2c(c1)cnc1ccccc12` has a logP [16] of 3.3.

Compound `CCCCCCCCOC(=O)c1ccc(N(C)C)cc1` has a logP [8] of 5.75.

`CC(C)(CCC(CO[N+](=O)[O-])O[N+](=O)[O-])C(=O)Oc1ccccc1C(=O)O` (stereo unspecified) gave a logP [14] of 3.33.

`COC(=O)[C@H](Cc1ccc(O)cc1)NC(C)=O` showed a logD [13] of 0.33.

`Cc1ccc(C=C2C(=O)[C@]3(C)CCC2C3(C)C)cc1` gave a logP [8] of 5.13.

With `c1ccc2c(c1)ccc1nc3c(ccc4ccccc43)cc12` the logP [16] was 5.38.

For `Brc1cc2oc3cc(Br)c(Br)c(Br)c3c2cc1Br`, the logP was 7.2.

For `CN(N=O)C(=O)N(C)c1ccccc1`, the logD [5] was 1.58.

With `Clc1ccc(Cl)c(Cl)n1` the logP [12] was 2.77.

Work on `O=C(CCCCCCO[N+](=O)[O-])Oc1ccccc1C(=O)O` yielded a logP [14] of 3.22.

Compound `CN(N=O)C(=O)Oc1cccc2ccccc12` has a logD [5] of 2.85.

`O=C(CCCCO[N+](=O)[O-])Oc1ccccc1C(=O)O` showed a logP [14] of 2.21.

In the case of `COC(=O)[C@H](C)NC(C)=O`, the logD [13] is reported as -0.57.

`CC1(C)NC(=O)NC1=O` showed a logP [9] of -0.48.

`COc1ccc(C(=O)c2ccccc2)c(O)c1` showed a logP [8] of 3.82.

Work on `COc1ccc(C(c2ccc(OC)cc2)C(C)[N+](=O)[O-])cc1` (stereo unspecified) yielded a logP [2] of 3.87.

`C=CCOc1ccccc1OCC(CNC(C)C)OC(=O)c1ccc([N+](=O)[O-])cc1` (stereo unspecified) gave a logP [15] of 5.22.

`CC(=O)c1ccc(N)cc1` showed a logD [10] of 0.83.

Compound `CC(C)N(N=O)C(=O)Nc1ccccc1` has a logD [5] of 2.5.

`C=CCOc1ccccc1OCC(CNC(C)C)OC(C)=O` (stereo unspecified) showed a logP [15] of 3.82.

`COc1ccc(C(C[N+](=O)[O-])c2ccc(OC)cc2)cc1` showed a logP [2] of 3.57.

`Clc1cnc(Cl)c(Cl)c1` gave a logP [12] of 3.11.

Work on `Cn1c(=O)nc(-c2ccccc2)c2cc(Cl)ccc21` yielded a logP [3] of 2.38.

Work on `CCN(CC)C(=O)COC(=O)c1ccccc1O` yielded a logD [11] of 1.99.

In the case of `CC(C)(CO[N+](=O)[O-])C(=O)Oc1ccccc1C(=O)O`, the logP [14] is reported as 2.32.

In the case of `Nc1ccc(CCO)cc1`, the logD [10] is reported as 0.1.

With `C=C1C(=O)O[C@@H]2C[C@@H](C)[C@@H]3C4CC(=O)[C@]3(C[C@H]12)[C@@]1(C4)C(=O)O[C@@H]2C[C@@H](C)[C@@H]3C=CC(=O)[C@@]3(C)[C@@H](O)[C@@H]21` the logP [6] was 1.66.

`COc1ccc2c(c1)c(-c1ccccc1)nc(=O)n2C` showed a logP [3] of 1.91.

In the case of `Cc1ccccc1S(=O)(=O)N1C(=O)NC(=O)C1(c1ccccc1)c1ccccc1`, the logP [9] is reported as 4.

With `c1cnc2c(c1)cc1ccc3cccc4ccc2c1c34` the logP [16] was 5.35.

For `CCCCCCCCCCCCCCOCCOCCOCCOCCOCCOCCOCCOCCO`, the logP [1] was 5.65.

For `COc1ccc(OC)c(N)c1`, the logD [10] was 1.2.

`CC1=C2[C@@H](C[C@@H](C)[C@@H]3C=CC(=O)[C@@]3(C)[C@H]2O)OC1=O` showed a logP [6] of 1.13.

Compound `CCN(N=O)C(=O)Nc1ccccc1` has a logD [5] of 2.25.

`Cn1c(=O)nc(-c2ccccc2)c2ccc(Cl)cc21` showed a logP [3] of 2.36.

Work on `CCCCCCC(NC(C)=O)C(=O)OC` (stereo unspecified) yielded a logD [13] of 1.7.

In the case of `C=C1C(=O)O[C@@H]2C[C@@H](C)[C@@H]3C=CC(=O)[C@@]3(C)[C@@H](OC(=O)CC(=O)O[C@H]3[C@@H]4C(=C)C(=O)O[C@@H]4C[C@@H](C)[C@@H]4C=CC(=O)[C@]43C)[C@H]12`, the logP [6] is reported as 1.33.

`CCC(NC(C)=O)C(=O)OC` (stereo unspecified) showed a logD [13] of -0.17.

With `CCN(CC)CCNC(=O)c1ccc(NS(C)(=O)=O)cc1` the logP [4] was 1.36.

In the case of `CCC(C(c1ccc(OC)cc1)c1ccc(OC)cc1)[N+](=O)[O-]` (stereo unspecified), the logP [2] is reported as 4.45.

In the case of `CC(C)c1ccc(C(=O)CC(=O)c2ccccc2)cc1`, the logP [8] is reported as 6.51.

`Clc1cncc(Cl)c1` showed a logP [12] of 2.56.

With `C[C@@H]1C[C@H]2OC(=O)[C@@H](C)[C@H]2[C@H](O)[C@]2(C)C(=O)C=C[C@@H]12` the logP [6] was 0.53.

For `CCC(=O)C(CC(C)N(C)C)(c1ccccc1)c1ccccc1` (stereo unspecified), the logP [4] was 3.93.

`COc1ccc(C(c2ccc(OC)cc2)C(F)(F)F)cc1` gave a logP [2] of 4.76.

Work on `c1ccc2c(c1)Cc1cccnc1-2` yielded a logP [16] of 2.78.

With `Nc1ccc(Cc2ccc(N)cc2)cc1` the logD [10] was 1.62.

With `C=CCOc1ccccc1OCC(CNC(C)C)OC(=O)CCC` (stereo unspecified) the logP [15] was 3.95.

`c1ccc2c(c1)ccc1nc3ccc4ccccc4c3cc12` showed a logP [16] of 5.31.

With `CCCCCCOCCOCCOCCOCCOCCO` the logP [1] was 1.24.

`COC(=O)[C@H](CC(C)C)NC(C)=O` showed a logD [13] of 0.84.

For `Brc1cc2c(cc1Br)Oc1cc(Br)c(Br)cc1O2`, the logP was 6.5.

For `Clc1cc(Cl)nc(Cl)c1`, the logP [12] was 2.68.

In the case of `CC(=O)c1ccc2cc(C(C)C(=O)OCC(N)=O)ccc2c1` (stereo unspecified), the logD [11] is reported as 2.06.

Compound `Brc1cc2oc3ccc(Br)c(Br)c3c2cc1Br` has a logP of 6.2.

`COc1cc(C(C)(C)C)c(O)c(C(C)(C)C)c1` gave a logP [8] of 4.64.

With `CCN(CC)C(=O)COC(=O)C(C)c1ccc2cc(C(C)=O)ccc2c1` (stereo unspecified) the logD [11] was 3.32.

Compound `c1ccc2nc3ccc4ccccc4c3cc2c1` has a logP [16] of 4.27.

Compound `C=CCOc1ccccc1OCC(CNC(C)C)OC(=O)C1CC1` (stereo unspecified) has a logP [15] of 3.01.

For `C=CCOc1ccccc1OCC(CNC(C)C)OC(=O)CC` (stereo unspecified), the logP [15] was 3.76.

Work on `O=C(CCO[N+](=O)[O-])Oc1ccccc1C(=O)O` yielded a logP [14] of 1.6.

Work on `CN(C)C(=O)COC(=O)c1ccccc1O` yielded a logD [11] of 1.21.

Compound `Clc1cccc(Cl)n1` has a logP [12] of 2.15.

In the case of `Cc1ccccc1N1C(=O)c2cc(S(N)(=O)=O)c(Cl)cc2NC1C` (stereo unspecified), the logP [4] is reported as 1.8.

`CC(C)NCC(O)c1ccc(NS(C)(=O)=O)cc1` (stereo unspecified) gave a logP [4] of 0.53.

With `C=C1C(=O)O[C@@H]2C[C@@H](C)[C@@H]3C=CC(=O)[C@@]3(C)[C@@H](OC(=O)CCCC(=O)O[C@H]3[C@@H]4C(=C)C(=O)O[C@@H]4C[C@@H](C)[C@@H]4C=CC(=O)[C@]43C)[C@H]12` the logP [6] was 1.37.
